# Columns and labels:
# Experiment in all cases: KiNativ profiling in human PBMCs
# Assay type in all cases: binding
# PITSLRE = test system: T1, PITSLRE; conditions: Lys2
# T1 construct: purchased ActivX Technologies (KiNativ)
# Procedure, shortened: (§1)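 Steps: expose living PBMCs to compound (0.1 µM or 1 µM); perform KiNativ-based kinase profiling.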
# IKKa = test system: T2, IKKa; conditions: Lys2
# T2 construct: purchased ActivX Technologies (KiNativ)
# Procedure, shortened: as §1
# MAP3K1 = test system: T3, MAP3K1; conditions: Lys2
# T3 construct: purchased ActivX Technologies (KiNativ)
# Procedure, shortened: as §1
# ARAF = test system: T4, ARAF; conditions: Lys2
# T4 construct: purchased ActivX Technologies (KiNativ)
# Procedure, shortened: as §1
# SGK3 = test system: T5, SGK3; conditions: Lys2
# T5 construct: purchased ActivX Technologies (KiNativ)
# Procedure, shortened: as §1
# JNK1,JNK2,JNK3 = conditions: Lys2
# Procedure, shortened: as §1
# OSR1 = test system: T6, OSR1; conditions: Lys2
# T6 construct: purchased ActivX Technologies (KiNativ)
# Procedure, shortened: as §1
# TBK1 = test system: T7, TBK1; conditions: Lys1
# T7 construct: purchased ActivX Technologies (KiNativ)
# Procedure, shortened: as §1
# NEK4 = test system: T8, NEK4; conditions: Lys2
# T8 construct: purchased ActivX Technologies (KiNativ)
# Procedure, shortened: as §1
# MAP2K3 = test system: T9, MAP2K3
# T9 construct: purchased ActivX Technologies (KiNativ)
# Procedure, shortened: as §1
# AKT2,AKT3 = conditions: ATP Loop
# Procedure, shortened: as §1
# MAP3K2 = test system: T10, MAP3K2; conditions: Lys1
# T10 construct: purchased ActivX Technologies (KiNativ)
# Procedure, shortened: as §1
# PIP5K3 = test system: T11, PIP5K3; conditions: ATP
# T11 construct: purchased ActivX Technologies (KiNativ)
# Procedure, shortened: as §1
# GCN2 = test system: T12, GCN2; conditions: Lys2
# T12 construct: purchased ActivX Technologies (KiNativ)
# Procedure, shortened: as §1
# MST1,MST2 = conditions: Lys2
# Procedure, shortened: as §1
# RSK1,RSK2,RSK3 domain1 = conditions: Lys2
# Procedure, shortened: as §1
# TLK2 = test system: T13, TLK2; conditions: Lys2
# T13 construct: purchased ActivX Technologies (KiNativ)
# Procedure, shortened: as §1
# MAP3K5 = test system: T14, MAP3K5; conditions: Lys2
# T14 construct: purchased ActivX Technologies (KiNativ)
# Procedure, shortened: as §1
# STLK3 = test system: T15, STLK3; conditions: Lys2
# T15 construct: purchased ActivX Technologies (KiNativ)
# Procedure, shortened: as §1
# KSR1,KSR2 = conditions: Activation Loop
# Procedure, shortened: as §1
# RIPK3 = test system: T16, RIPK3; conditions: Lys2
# T16 construct: purchased ActivX Technologies (KiNativ)
# Procedure, shortened: as §1
# JAK1 domain1 = test system: T17, JAK1 domain1; conditions: Other
# T17 construct: JAK1 domain1; purchased ActivX Technologies (KiNativ)
# Procedure, shortened: as §1
# MARK2,MARK3 = conditions: Lys2
# Procedure, shortened: as §1
# PRP4 = test system: T18, PRP4; conditions: Other
# T18 construct: purchased ActivX Technologies (KiNativ)
# Procedure, shortened: as §1
# SNRK = test system: T19, SNRK; conditions: Lys2
# T19 construct: purchased ActivX Technologies (KiNativ)
# Procedure, shortened: as §1
# KHS1 = test system: T20, KHS1; conditions: Lys1
# T20 construct: purchased ActivX Technologies (KiNativ)
# Procedure, shortened: as §1
# RSK3 domain1 = test system: T21, RSK3 domain1; conditions: Lys2
# T21 construct: RSK3 domain1; purchased ActivX Technologies (KiNativ)
# Procedure, shortened: as §1
# PIK3CG = test system: T22, PIK3CG; conditions: ATP
# T22 construct: purchased ActivX Technologies (KiNativ)
# Procedure, shortened: as §1
# Erk2 = test system: T23, Erk2; conditions: Lys2
# T23 construct: purchased ActivX Technologies (KiNativ)
# Procedure, shortened: as §1
# SLK = test system: T24, SLK
# T24 construct: purchased ActivX Technologies (KiNativ)
# Procedure, shortened: as §1
# MAP3K15,MAP3K5,MAP3K6 = conditions: Lys1
# Procedure, shortened: as §1
# YANK3 = test system: T25, YANK3; conditions: Lys2
# T25 construct: purchased ActivX Technologies (KiNativ)
# Procedure, shortened: as §1
# CaMK2g = test system: T26, CaMK2g; conditions: Lys1
# T26 construct: purchased ActivX Technologies (KiNativ)
# Procedure, shortened: as §1
# MSK1 domain1 = test system: T27, MSK1 domain1; conditions: Lys2
# T27 construct: MSK1 domain1; purchased ActivX Technologies (KiNativ)
# Procedure, shortened: as §1
# Erk5 = test system: T28, Erk5; conditions: Lys2
# T28 construct: purchased ActivX Technologies (KiNativ)
# Procedure, shortened: as §1
# TAO1,TAO3 = conditions: Lys2
# Procedure, shortened: as §1
# ULK1 = test system: T29, ULK1; conditions: Lys2
# T29 construct: purchased ActivX Technologies (KiNativ)
# Procedure, shortened: as §1
# CaMKK2 = test system: T30, CaMKK2; conditions: Lys2
# T30 construct: purchased ActivX Technologies (KiNativ)
# Procedure, shortened: as §1
# PIK3C3 = test system: T31, PIK3C3; conditions: ATP
# T31 construct: purchased ActivX Technologies (KiNativ)
# Procedure, shortened: as §1
smiles,measurement,setting,value
Cc1cccc(-c2cc(Nc3ccn(C)n3)nc3[nH]cc(C#N)c23)c1 [Lu AF58786],Inhibition,PITSLRE; 0.1µM,2.7%
same,Inhibition,PITSLRE; 1µM,-9.8%
same,Inhibition,IKKa; 0.1µM,9.8%
same,Inhibition,IKKa; 1µM,6.8%
same,Inhibition,MAP3K1; 0.1µM,9.1%
same,Inhibition,MAP3K1; 1µM,0.247%
same,Inhibition,ARAF; 0.1µM,-4.9%
same,Inhibition,ARAF; 1µM,-4.5%
same,Inhibition,SGK3; 0.1µM,-8.9%
same,Inhibition,SGK3; 1µM,13.9%
same,Inhibition,"JNK1,JNK2,JNK3; 0.1µM",30.2%
same,Inhibition,"JNK1,JNK2,JNK3; 1µM",71.2%
same,Inhibition,OSR1; 0.1µM,19.8%
same,Inhibition,OSR1; 1µM,-4.1%
same,Inhibition,TBK1; 0.1µM,10.1%
same,Inhibition,TBK1; 1µM,26.3%
same,Inhibition,NEK4; 0.1µM,-32.0%
same,Inhibition,NEK4; 1µM,-14.9%
same,Inhibition,"MAP2K3; 0.1µM, Lys1",-31.6%
same,Inhibition,"MAP2K3; 0.1µM, Lys2",-1.9%
same,Inhibition,"MAP2K3; 1µM, Lys1",-37.3%
same,Inhibition,"MAP2K3; 1µM, Lys2",0.27%
same,Inhibition,"AKT2,AKT3; 0.1µM",-0.7%
same,Inhibition,"AKT2,AKT3; 1µM",-7.3%
same,Inhibition,MAP3K2; 0.1µM,26.8%
same,Inhibition,MAP3K2; 1µM,18.5%
same,Inhibition,PIP5K3; 0.1µM,-2.2%
same,Inhibition,PIP5K3; 1µM,4.2%
same,Inhibition,GCN2; 0.1µM,-20.3%
same,Inhibition,GCN2; 1µM,-15.5%
same,Inhibition,"MST1,MST2; 0.1µM",6.3%
same,Inhibition,"MST1,MST2; 1µM",4.8%
same,Inhibition,"RSK1,RSK2,RSK3 domain1; 0.1µM",14.1%
same,Inhibition,"RSK1,RSK2,RSK3 domain1; 1µM",29.7%
same,Inhibition,TLK2; 0.1µM,13.3%
same,Inhibition,TLK2; 1µM,-1.2%
same,Inhibition,MAP3K5; 0.1µM,4.3%
same,Inhibition,MAP3K5; 1µM,-3.2%
same,Inhibition,STLK3; 0.1µM,22.4%
same,Inhibition,STLK3; 1µM,-36.2%
same,Inhibition,"KSR1,KSR2; 0.1µM",12.4%
same,Inhibition,"KSR1,KSR2; 1µM",-3.6%
same,Inhibition,RIPK3; 0.1µM,2.4%
same,Inhibition,RIPK3; 1µM,-10.9%
same,Inhibition,JAK1 domain1; 0.1 µM,19.3%
same,Inhibition,JAK1 domain1; 1 µM,55.0%
same,Inhibition,"MARK2,MARK3; 0.1µM",-38.4%
same,Inhibition,"MARK2,MARK3; 1µM",-36.2%
same,Inhibition,PRP4; 0.1 µM,-2.3%
same,Inhibition,PRP4; 1 µM,3.0%
same,Inhibition,SNRK; 0.1µM,22.5%
same,Inhibition,SNRK; 1µM,15.1%
same,Inhibition,KHS1; 0.1µM,3.0%
same,Inhibition,KHS1; 1µM,-2.5%
same,Inhibition,RSK3 domain1; 0.1µM,12.9%
same,Inhibition,RSK3 domain1; 1µM,26.9%
same,Inhibition,PIK3CG; 0.1µM,8.8%
same,Inhibition,PIK3CG; 1µM,2.1%
same,Inhibition,Erk2; 0.1µM,2.4%
same,Inhibition,Erk2; 1µM,1.7%
same,Inhibition,"SLK; 0.1µM, Lys1",-13.3%
same,Inhibition,"SLK; 0.1µM, Lys2",8.0%
same,Inhibition,"SLK; 1µM, Lys1",25.5%
same,Inhibition,"SLK; 1µM, Lys2",-7.2%
same,Inhibition,"MAP3K15,MAP3K5,MAP3K6; 0.1µM",12.0%
same,Inhibition,"MAP3K15,MAP3K5,MAP3K6; 1µM",11.6%
same,Inhibition,YANK3; 0.1µM,11.1%
same,Inhibition,YANK3; 1µM,-8.5%
same,Inhibition,CaMK2g; 0.1µM,3.3%
same,Inhibition,CaMK2g; 1µM,-7.2%
same,Inhibition,MSK1 domain1; 0.1µM,15.8%
same,Inhibition,MSK1 domain1; 1µM,1.9%
same,Inhibition,Erk5; 0.1µM,2.1%
same,Inhibition,Erk5; 1µM,10.9%
same,Inhibition,"TAO1,TAO3; 0.1µM",27.6%
same,Inhibition,"TAO1,TAO3; 1µM",15.9%
same,Inhibition,ULK1; 0.1µM,-3.7%
same,Inhibition,ULK1; 1µM,-7.0%
same,Inhibition,CaMKK2; 0.1µM,13.8%
same,Inhibition,CaMKK2; 1µM,1.3%
same,Inhibition,PIK3C3; 0.1µM,1.5%
same,Inhibition,PIK3C3; 1µM,-10.0%
